Patent publication US6380194B1 (Janssen Pharmaceutica N.V., priority 1996, dated 2002)
pIC50: −log10 of the molar value.

Experiments:
[1] = Cytotoxicity in mock-infected MT-4 cells (MTT); details: human
Protocol: (§1) A rapid, sensitive and automated assay procedure was used for the in vitro evaluation of anti-HIV agents. An […] T4-cell line, MT-4, which was previously shown (Koyanagi et al., Int. J. Cancer, 36, 445-451, 1985) to be highly susceptible to and permissive for HIV infection, served as the target cell line. Inhibition of the HIV-induced cytopathic effect was used as the end point. The viability of both HIV- and mock-infected cells was assessed spectrophotometrically via the in situ reduction of 3-(4,5-dimethylthiazol-2-yl)-2,5-diphenyltetrazolium bromide (MTT). The 50% cytotoxic concentration (CC50 in μM) was defined as the concentration of compound that reduced the absorbance of the mock-infected control sample by 50%. The percent protection achieved by the compound in HIV-infected cells was calculated by the following formula: [formula]
(§2) whereby (ODT)HIV is the optical density measured with a given concentration of the test compound in HIV-infected cells; (ODC)HIV is the optical density measured for the control untreated HIV-infected cells; (ODC)MOCK is the optical density measured for the control untreated mock-infected cells; all optical density values were determined at 540 nm. The dose achieving 50% protection according to the above formula was defined as the 50% inhibitory concentration (IC50 in μM). The ratio of CC50 to IC50 was defined as the selectivity index (SI).

[2] = tested on: HIV-1; assay: Inhibition of HIV-induced cytopathic effect in MT-4 cells (MTT); type: cell-based; details: dose achieving 50% protection of HIV-infected MT-4 cells, mean, number of experiments in brackets
Protocol: as §1, §2

[3] = tested on: mock-infected MT-4 cells; assay: Cytotoxicity in mock-infected MT-4 cells (MTT)
Protocol: as §1, §2

[4] = Human immunodeficiency virus 1, MT4

| SMILES | CC50 ([1]; mock-infected MT-4 cells) [µM] | also measured |
| --- | --- | --- |
| N#Cc1ccc(Nc2nc(Cc3c(Cl)cccc3Cl)nc(NC(=N)N)n2)cc1 [Compound 20, N-[4-[(4-cyanophenyl)amino]-6-[(2,6-dichlorophenyl)methyl]-1,3,5-triazin-2-yl]-guanidine] | 4.3 |  |
| CN(C)CCNc1nc(Cc2c(Cl)cccc2Cl)nc(Nc2ccc(C#N)cc2)n1 [Compound 29] |  | pIC50 [2]: 7.30 |
| N#Cc1ccc(Nc2nc(Cc3c(Cl)cccc3Cl)nc(NCC(N)=O)n2)cc1 [Compound 14, [N-[4-[(4-cyanophenyl)amino]-6-[(2,6-dichlorophenyl)methyl]-1,3,5-triazin-2-yl]]aminoacetamide] | 9.1 |  |
| NC(=O)c1ccc(Nc2nc(N)nc(Cc3c(Cl)ccc4[nH]ccc34)n2)cc1 [Compound 9, 4-[[4-amino-6-[(5-chloro-1H-indol-4-yl)methyl]-1,3,5-triazin-2-yl]amino]benzamide] | 54.4 |  |
| N#Cc1ccc(Nc2nc(Cc3c(Cl)cccc3Cl)nc(NC(CCO)C(N)=O)n2)cc1 (racemic) [Compound 34, (±)-2-[[4-[(4-cyanophenyl)amino]-6-[(2,6-dichlorophenyl)amino]-6-[(2,6-dichlorophenyl)methyl]-1,3,5-triazin-2-yl]amino-4-hydroxybutanamide] |  | pIC50 [2]: 7.24; CC50 [3]: 42.3 µM |
| N#Cc1ccc(Nc2nc(N)nc(Cc3c(Cl)cccc3Cl)n2)cc1 [Compound 1, 4-[[4-amino-6-[(2,6-dichlorophenyl)methyl]-1,3,5-triazin-2-yl]amino]benzonitrile] | > 100 |  |
| COC(=O)CN(c1ccc(C#N)cc1)c1nc(N)nc(Cc2c(Cl)cccc2Cl)n1 [Compound 39] |  | pIC50 [2, 4]: 7.11; CC50 [1]: > 20 µM |
| CC(=N)Nc1nc(Cc2c(Cl)cccc2Cl)nc(Nc2ccc(C#N)cc2)n1 [Compound 28] |  | pIC50 [2]: 8.52; CC50 [3]: > 100 µM |
| N#Cc1ccc(Nc2nc(Cc3c(Cl)cccc3Cl)nc(NO)n2)cc1 [Compound 33, 4-[[4-[(2,6-dichlorophenyl)methyl]-6-(hydroxyamino)-1,3,5-triazin-2-yl]amino]benzonitrile] | 14.1 |  |
| CC(=O)Nc1nc(Cc2c(Cl)cccc2Cl)nc(Nc2ccc(C#N)cc2)n1 [Compound 22, N-[4-[(4-cyanophenyl)amino]-6-[(2,6-dichlorophenyl)methyl]-1,3,5-triazin-2-yl]-acetamide] | > 100 |  |
| CN(C)c1nc(Cc2c(Cl)cccc2Cl)nc(N(c2ccc(C#N)cc2)c2ccc(C#N)cc2)n1 [Compound 38, 4,4′-[[4-[(2,6-dichlorophenyl)methyl]-6-(dimethylamino)-1,3,5-triazin-2-yl]imino]bisbenzonitrile] | > 100 |  |
| N#Cc1ccc(Nc2nc(Cc3c(Cl)cccc3Cl)nc(NCC(=O)O)n2)cc1 [Compound 16, N-[4-[(4-cyanophenyl)amino]-6-[(2,6-dichlorophenyl)methyl]-1,3,5-triazin-2-yl]glycine] | 79.9 |  |
| N#Cc1ccc(Nc2nc(N)nc(C(CC3CC3)c3c(Cl)cccc3Cl)n2)cc1 (racemic) [Compound 61] |  | pIC50 [2]: 5.16; CC50 [3]: 53.4 µM |
| CC(C)NC(=O)Nc1nc(Cc2c(Cl)cccc2Cl)nc(Nc2ccc(C#N)cc2)n1 [Compound 6, N-[4-[(4-cyanophenyl)amino]-6-[(2,6-dichlorophenyl)methyl]-1,3,5-triazin-2-yl]-N′-(1-methylethyl)urea] | > 100 |  |
| N#Cc1ccc(Nc2nc(Cc3c(Cl)cccc3Cl)nc(NCCCNC(N)=O)n2)cc1 [Compound 23, N-[3-[[4-[(4-cyanophenyl)amino]-6-[(2,6-dichlorophenyl)methyl]-1,3,5-triazin-2-yl]amino]propyl]urea] | 36.7 |  |
| CN(C)C=Nc1nc(Cc2c(Cl)cccc2Cl)nc(Nc2ccc(C#N)cc2)n1 [Compound 62, 4-[[4-[(2,6-dichlorophenyl)methyl]-6-[[(dimethylamino)methylene]amino]-1,3,5-triazin-2-yl]amino]benzonitrile] | > 100 |  |
| N#Cc1ccc(Nc2nc(Cc3c(Cl)cccc3Cl)nc(NCC(O)CO)n2)cc1 (racemic) [Compound 26, (±)-4-[[4-[(2,6-dichlorophenyl)methyl]-6-[(2,3-dihydroxypropyl)amino]-1,3,5-triazin-2-yl]amino]benzonitrile] | 59.7 | pIC50 [2, 4]: 7.17 |
| N#Cc1ccc(Nc2nc(N)nc(Cc3c(Cl)ccc4[nH]ccc34)n2)cc1 [Compound 8, 4-[[4-amino-6-[(5-chloro-1H-indol-4-yl)methyl]-1,3,5-triazin-2-yl]amino]benzonitrile] | 14.4 |  |
| N#Cc1ccc(Nc2nc(Cc3c(Cl)cccc3Cl)nc(NN)n2)cc1 [Compound 15, 4-[[4-[(2,6-dichlorophenyl)methyl]-6-hydrazino-1,3,5-triazin-2yl]amino]benzonitrile] | 44.6 |  |
| CCOc1cccc(Cc2nc(N)nc(Nc3ccc(C#N)cc3)n2)c1 [Compound 48] |  | pIC50 [2]: 7.13; CC50 [3]: > 20 µM |
| COc1cccc(Cc2nc(N)nc(Nc3ccc(C#N)cc3)n2)c1 [Compound 47] |  | pIC50 [2]: 7.09; CC50 [3]: > 20 µM |
